# System: vWF positive endothelial cells in tumors
# Assay: delivery of DY633-labeled peptide to tumors in H460-tumor bearing SCID mice
# Type: in vivo, mouse
# Conditions: 10 mg/kg i.v. via tail vein, tumors dissected after 1 hour
# Experimental: Delivery of the DUF2C5 peptide was tested using synthesized peptide covalently conjugated with DY633 fluorescent probe (Pierce). DY633-DUF2C5 (10 mg/kg body weight), DY633-CT23 or DY633 alone were injected intravenous (i.v.) via tail vein in H460-tumor bearing SCID mice. After 1 hour, tumors were dissected and flash frozen in OCT. Cryosections of tumors were co-stained with vWF to visualize endothelial cells in tumors.
smiles,measurement,value
CC[N+](CCCS(=O)(=O)[O-])=c1ccc2c(C=CC=C3N(CCCCCC(=O)O)c4ccc(S(=O)(=O)[O-])cc4C3(C)C)cc(C(C)(C)C)oc-2c1.[Na+] [DY633],delivery into tumor sites (DY633 label in tumor cryosections),not detected
